Measured values from PubChem BioAssay AID330 (DTP/NCI, 2004).
“And” between values parts separate entries of the source, which are not always exact repeats. Equal values may be shown once. Toxic doses and inconclusive results are not listed. How the source made its calls: active means survival T/C of 150% or more; inactive means T/C below 125% in these data.

Test system: P388 leukemia ip, CD2F1 mice, survival T/C
Experiment: NCI In Vivo Anticancer Drug Screen. Data for tumor model P388 Leukemia (intraperitoneal) in CD2F1 (CDF1) mice
Settings: endpoint: median survival time, higher = longer survival
In short: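 Mice carrying the transplanted tumor received test compound or vehicle. Survival was recorded in each group, and the value is the treated-group measurement divided by that of the vehicle-treated control group.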

[1] = dose: 50.0 mg/kg/injection, schedule: Q01DX005 (ip), vehicle: saline with Tween-80
[2] = dose: 100.0 mg/kg/injection, schedule: Q01DX005 (ip), vehicle: saline with Tween-80
[3] = dose: 200.0 mg/kg/injection, schedule: Q01DX005 (ip), vehicle: saline with Tween-80
[4] = dose: 50.0 mg/kg/injection, schedule: Q01DX009 (ip), vehicle: saline with Tween-80
[5] = dose: 100.0 mg/kg/injection, schedule: Q01DX009 (ip), vehicle: saline with Tween-80
[6] = dose: 200.0 mg/kg/injection, schedule: Q01DX009 (ip), vehicle: saline with Tween-80
[7] = dose: 50.0 mg/kg/injection, schedule: Q01DX005 (ip), vehicle: Klucel (hydroxypropylcellulose) (HPC)
[8] = dose: 100.0 mg/kg/injection, schedule: Q01DX005 (ip), vehicle: Klucel (hydroxypropylcellulose) (HPC)
[9] = dose: 200.0 mg/kg/injection, schedule: Q01DX005 (ip), vehicle: Klucel (hydroxypropylcellulose) (HPC)

Measured: T/C

CCCCN(CCNc1ccc(C)c2sc3ccccc3c(=O)c12)CC(C)O (configuration not stated)
inactive: [1] 101 % of control | [2] 104 % of control | [3] 101 % of control

Cc1cc2[nH]c(Cl)c(/C=N/NC(N)=S)c2cc1O
inactive: dose: 100.0 mg/kg/injection, schedule: Q01DX001 (ip), vehicle: Klucel (hydroxypropylcellulose) (HPC) 99 % of control | dose: 200.0 mg/kg/injection, schedule: Q01DX001 (ip), vehicle: Klucel (hydroxypropylcellulose) (HPC) 99 % of control | dose: 400.0 mg/kg/injection, schedule: Q01DX001 (ip), vehicle: Klucel (hydroxypropylcellulose) (HPC) 97 % of control

O=C(NC1CCCCC1)C(=O)c1cc(Cl)c(Cl)c(Cl)c1Cl
inactive: [4] 106 % of control | [5] 114 % of control | [6] 103 % of control

CC(=O)OC1CC2CC1C1C3C=CC(C3)C21 (configuration not stated)
inactive: dose: 25.0 mg/kg/injection, schedule: Q01DX009 (ip), vehicle: saline with Tween-80 100 % of control | [4] 104 % of control | dose: 100.0 mg/kg/injection, schedule: Q01DX001 (ip), vehicle: saline 100 % of control | dose: 200.0 mg/kg/injection, schedule: Q01DX001 (ip), vehicle: saline 91 % of control | dose: 400.0 mg/kg/injection, schedule: Q01DX001 (ip), vehicle: saline 95 % of control

Cc1cc2c(cc1C)NS(=O)(=O)N2
inactive: dose: 60.0 mg/kg/injection, schedule: Q01DX005 (ip), vehicle: saline with Tween-80 102 % of control | dose: 120.0 mg/kg/injection, schedule: Q01DX005 (ip), vehicle: saline with Tween-80 109 % of control | dose: 240.0 mg/kg/injection, schedule: Q01DX005 (ip), vehicle: saline with Tween-80 102 % of control

OCCCOCCCOCCCOCCCOCCCOCCCO
inactive: [1] 100 % of control | [2] 96 % of control | [3] 102 % of control

O=C1CS(=O)(=O)C(c2cccnc2)N1CCN1C(=O)CS(=O)(=O)C1c1cccnc1 (configuration not stated)
inactive: dose: 100.0 mg/kg/injection, schedule: Q04DX002 (ip), vehicle: saline with Tween-80 97 % of control | dose: 200.0 mg/kg/injection, schedule: Q04DX002 (ip), vehicle: saline with Tween-80 93 % of control | dose: 400.0 mg/kg/injection, schedule: Q04DX002 (ip), vehicle: saline with Tween-80 92 % of control

CCCCCCCCCC#CC(=O)O
inactive: [4] 95 % of control | [5] 110 % of control | [6] 89 % of control

COC(=O)C1(C)OS(=O)(=O)c2ccccc21 (configuration not stated)
inactive: [4] 101 % of control | [5] 101 % of control | [6] 104 % of control

Cc1nc2[nH][nH]c(=O)c2nc1C
inactive: [5] 100 % of control | dose: 100.0 mg/kg/injection, schedule: Q01DX009 (ip), vehicle: saline 108 % of control | [6] 96 % of control | dose: 200.0 mg/kg/injection, schedule: Q01DX009 (ip), vehicle: saline 102 % of control | dose: 400.0 mg/kg/injection, schedule: Q01DX009 (ip), vehicle: saline with Tween-80 94 % of control | dose: 400.0 mg/kg/injection, schedule: Q01DX009 (ip), vehicle: saline 102 % of control | dose: 600.0 mg/kg/injection, schedule: Q01DX009 (ip), vehicle: saline with Tween-80 94 % of control | dose: 600.0 mg/kg/injection, schedule: Q01DX009 (ip), vehicle: saline 98 % of control

c1ccc(N=C(Nc2ccccc2)C(=Nc2ccccc2)Nc2ccccc2)cc1
inactive: [7] 100 % of control | [8] 96 % of control | [9] 98 % of control

COc1ccc(Cc2cc3c(cc2OCC(=O)N2CCOCC2)OCO3)cc1
inactive: [7] 97 % of control | [8] 89 % of control | [9] 97 % of control

CC(=O)Oc1cc2oc([O-])c[n+]2c2ccccc12
inactive: dose: 50.0 mg/kg/injection, schedule: Q01DX001 (ip), vehicle: saline with Tween-80 106 % of control | dose: 60.0 mg/kg/injection, schedule: Q01DX005 (ip), vehicle: Klucel + Tween-80 124 % of control | dose: 100.0 mg/kg/injection, schedule: Q01DX001 (ip), vehicle: saline with Tween-80 113 % of control and 124 % of control | dose: 200.0 mg/kg/injection, schedule: Q01DX001 (ip), vehicle: saline with Tween-80 106 % of control and 121 % of control
